Assay results as given in ChEMBL document CHEMBL5226380, “O-Alkylazoxymycins A-F, Naturally Occurring Azoxy-Aromatic Compounds from Streptomyces sp. Py50” (2023).
≈ marks a conversion by molar mass, not a printed value. Where a name gives a salt, the structure may show the parent alone.

Test system: Epidermophyton floccosum
Assay: Antifungal activity against Epidermophyton floccosum assessed as inhibition of fungal growth incubated for 24 hrs
Format: functional

MIC50 [µM]	Structure (SMILES)
10.1 (≈ 4.31 µg/mL)	O=C(O)CCCCCCc1ccccc1/[N+]([O-])=N/c1ccccc1CCCCC(=O)O
0.003	CN(C/C=C/C#CC(C)(C)C)Cc1cccc2ccccc12 [TERBINAFINE HYDROCHLORIDE]
23.1 (≈ 9.85 µg/mL)	O=C(O)CCCCCCc1ccccc1/N=[N+](\[O-])c1ccccc1CCCCC(=O)O
51.2 (≈ 23.3 µg/mL)	O=C(O)CCCCCCc1ccccc1/N=[N+](\[O-])c1ccccc1CCCCCCC(=O)O
